US20120129872A1, “FUSED HETEROARYL INHIBITORS OF PRO-MATRIX METALLOPROTEINASE ACTIVATION” (priority 2010, published 2012)
pIC50, pKd: −log10 of the molar value. Counter-ions that a name gives are not always drawn.

How the values were obtained:
[1] = target: T1, full-length proMMP9(1-707) (SEQ ID NO:1), activation by catalytic MMP3 (Homo sapiens, UniProt P14780, R574P); experiment: proMMP9/MMP3 P126 Activation Assay; format: biochemical
T1 construct: made in house; host or cells: HEK293 (transient, secreted)
Protocol: proMMP9/MMP3 P126 Activation Assay
The reaction volume was 50 μL. […] Reactivity of residual MMP3 towards P-126 substrate was minimal under these conditions.

[2] = target: T2, proMMP9(20-445;ΔFnII) (SEQ ID NO:6) (Homo sapiens, UniProt P14780, DEL216-390); experiment: ThermoFluor binding assay with proMMP9(20-445;ΔFnII)
T2 construct: start methionine (N); made in house; host or cells: E. coli BL21(DE3) RIL
T2 sequence (P14780 with tags, fused parts or gaps DEL216-390): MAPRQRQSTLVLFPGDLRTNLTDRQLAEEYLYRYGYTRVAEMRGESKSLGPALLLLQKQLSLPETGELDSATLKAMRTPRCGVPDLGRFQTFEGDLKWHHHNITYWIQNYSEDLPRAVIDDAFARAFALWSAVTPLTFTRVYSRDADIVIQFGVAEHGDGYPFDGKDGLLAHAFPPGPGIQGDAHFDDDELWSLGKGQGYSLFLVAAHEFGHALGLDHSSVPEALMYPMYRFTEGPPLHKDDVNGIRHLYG
Protocol: (§1) The ThermoFluor® (TF) assay is a 384-well plate-based binding assay that measures thermal stability of proteins (Biomol Screen 2001, 6, 429-40; Biochemistry 2005, 44, 5258-66). The experiments were carried out using instruments available from Johnson & Johnson Pharmaceutical Research & Development, LLC. TF dye used in all experiments was […] (1,8-ANS) (Invitrogen: A-47).
(§2) Compounds were arranged in a pre-dispensed plate (Greiner Bio-one: 781280), wherein compounds were serially diluted in 100% DMSO across 11 columns within a series. Columns 12 and 24 were used as DMSO reference and contained no compound. For multiple compound concentration-response experiments, the compound aliquots ([…]) were robotically predispensed directly into black 384-well polypropylene PCR microplates (Abgene: TF-0384/k) using a Cartesian Hummingbird liquid handler (DigiLab, Holliston, Mass.). Following compound dispense, protein and dye solutions were added to achieve the final assay volume of 3 μL. The assay solutions were overlayed with 1 μL of silicone oil (Fluka, type DC 200: 85411) to prevent evaporation.
(§3) Assay plates were robotically loaded onto a thermostatically controlled PCR-type thermal block and then heated from 40 to 90° C. at a ramp-rate of 1° C./min for all experiments. Fluorescence was measured by continuous illumination with UV light (Hamamatsu LC6) supplied via fiber optics and filtered through a band-pass filter (380-400 nm; >60D cutoff). Fluorescence emission of the entire 384-well plate was detected by measuring light intensity using a CCD camera (Sensys, Roper Scientific) filtered to detect 500±25 nm, resulting in simultaneous and independent readings of all 384 wells. A single image with 20-sec exposure time was collected at each temperature, and the sum of the pixel intensity in a given area of the assay plate was recorded vs temperature and fit to standard equations to yield the Tm (J Biomol Screen 2001, 6, 429-40).
(§4) Thermodynamic parameters necessary for fitting compound binding for each proMMP were estimated by differential scanning calorimetry (DSC) and from ThermoFluor® data. The heat capacity of unfolding for each protein was estimated from the molecular weight and from ThermoFluor® dosing data.
ThermoFluor® with proMMP9(20-445;ΔFnII (SEQ ID NO:6)
The protein sample preparations included a desalting buffer exchange step via a PD-10 gravity column (GE Healthcare). The desalting buffer exchange was performed prior to diluting the protein to the final assay concentration of 2.8 μM proMMP9(20-445;ΔFnII) (SEQ ID NO:6). The concentration of proMMP9(20-445;ΔFnII) (SEQ ID NO:6) was determined spectrophotometrically based on a calculated extinction coefficient of ε280=39880 M^−1 cm^−1, a calculated molecular weight of 28.2 kDa, and calculated pI of 5.5. ThermoFluor® reference conditions were define as follows: 80 μg/mL (2.8 μM) proMMP9(20-445;ΔFnII) (SEQ ID NO:6), 50 μM 1,8-ANS, pH 7.0 Buffer (50 mM HEPES pH 7.0, 100 mM NaCl, 0.001% Tween-20, 2.5 mM MgCl2, 300 μM CaCl2). The thermodynamic parameters for proMMP9(20-445;ΔFnII) (SEQ ID NO:6) are as follows: Tm (° C.)=72 (+/−0.1), ΔUH(Tm) (cal mol^−1)=160000(+/−5000), ΔUS(Tm) (cal mol^−1 K^−1)=434, ΔUCp (cal mol^−1 K^−1)=2400.

[3] = target: T3, proMMP9(67-444;ΔFnII) (SEQ ID NO:5) (Homo sapiens, UniProt P14780, DEL216-390); experiment: ThermoFluor binding assay with proMMP9(67-444;ΔFnII)
T3 construct: start methionine (N); made in house; host or cells: E. coli BL21(DE3) RIL
T3 sequence (P14780 with tags, fused parts or gaps DEL216-390): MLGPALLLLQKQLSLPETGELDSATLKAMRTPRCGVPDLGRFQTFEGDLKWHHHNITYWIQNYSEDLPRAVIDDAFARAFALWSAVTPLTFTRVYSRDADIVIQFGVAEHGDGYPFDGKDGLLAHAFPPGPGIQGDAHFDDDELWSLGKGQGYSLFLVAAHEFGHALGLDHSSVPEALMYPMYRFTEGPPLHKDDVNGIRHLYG
Protocol: as §1, §2, §3, §4
ThermoFluor® with proMMP9(67-444;ΔFnII (SEQ ID NO:5)
The protein sample preparations had to include a desalting buffer exchange step via a PD-10 gravity column (GE Healthcare). The desalting buffer exchange was performed prior to diluting the protein to the final assay concentration of 3.5 μM proMMP9(67-444;ΔFnII) (SEQ ID NO:5). The concentration of proMMP9(67-444;ΔFnII) (SEQ ID NO:5) was determined spectrophotometrically based on a calculated extinction coefficient of ε280=33900 M^−1 cm^−1, a calculated molecular weight of 22.6 kDa, and calculated pI of 5.20. ThermoFluor® reference conditions were defined as follows: 80 μg/mL (3.5 μM) proMMP9(67-444;ΔFnII) (SEQ ID NO:5), 50 μM 1,8-ANS, pH 7.0 Buffer (50 mM HEPES pH 7.0, 100 mM NaCl, 0.001% Tween-20, 2.5 mM MgCl2, 300 μM CaCl2). The thermodynamic parameters for proMMP9(67-444;ΔFnII) (SEQ ID NO:5) are as follows: Tm (° C.)=63 (+/−0.1), ΔUH(Tm) (cal mol^−1)=105000(+/−5000), ΔUS(Tm) (cal mol^−1 K^−1)=450, ΔuCp (cal mol^−1 K^−1)=2000.

T1 sequence (P14780 20-707 R574P): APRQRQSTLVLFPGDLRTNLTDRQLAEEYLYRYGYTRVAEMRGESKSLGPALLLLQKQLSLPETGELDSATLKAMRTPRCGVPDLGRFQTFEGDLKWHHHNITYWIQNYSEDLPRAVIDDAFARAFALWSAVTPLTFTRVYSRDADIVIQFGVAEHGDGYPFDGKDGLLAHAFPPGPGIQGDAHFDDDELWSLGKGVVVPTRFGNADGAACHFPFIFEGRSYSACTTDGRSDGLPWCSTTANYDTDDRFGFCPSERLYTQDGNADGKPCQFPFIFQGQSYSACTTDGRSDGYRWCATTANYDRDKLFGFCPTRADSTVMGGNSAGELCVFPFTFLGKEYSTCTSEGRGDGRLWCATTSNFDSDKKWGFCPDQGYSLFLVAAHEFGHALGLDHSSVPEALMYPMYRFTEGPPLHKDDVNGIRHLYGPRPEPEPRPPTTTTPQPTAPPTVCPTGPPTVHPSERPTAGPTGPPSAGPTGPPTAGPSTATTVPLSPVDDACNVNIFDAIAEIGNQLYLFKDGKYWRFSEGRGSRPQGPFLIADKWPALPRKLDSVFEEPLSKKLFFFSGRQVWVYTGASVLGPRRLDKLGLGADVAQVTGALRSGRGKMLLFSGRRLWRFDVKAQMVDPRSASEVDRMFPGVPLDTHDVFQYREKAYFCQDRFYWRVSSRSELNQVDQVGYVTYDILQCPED

Q: What does the source list for CC(C)Oc1ccc(S(N)(=O)=O)cc1Nc1nc(-c2ccc3occc3c2)cs1 [Example 24, 3-(4-Benzofuran-5-yl-thiazol-2-ylamino)-4-isopropoxy-benzenesulfonamide•TFA]?
A: pIC50 [1]: 5.47; pKd [2]: 6.62; pKd [3]: 6.17

Q: COc1cc(C)c(C(N)=O)cc1Nc1nc(-c2ccc3c(c2)ncn3C)cs1 [Example 1, 4-Methoxy-2-methyl-5-[4-(1-methyl-1H-benzoimidazol-5-yl)-thiazol-2-ylamino]-benzamide] was tested. Which pIC50 [1] did it give?
A: The pIC50 was 5.64.

Q: What about the pKd [2] of the same molecule?
A: Its pKd is 5.77.

Q: What about the pKd [3] of the same molecule?
A: Its pKd is 5.12.

Q: CC(C)Oc1ccc(S(N)(=O)=O)cc1Nc1nc(-c2ccc3[nH]c(N)nc3c2)cs1 [Example 34, 3-((4-(2-Amino-1H-benzo[d]imidazol-5-yl)thiazol-2-yl)amino)-4-isopropoxybenzenesulfonamide•TFA] was tested. Which pIC50 [1] did it give?
A: The pIC50 was 6.82.

Q: What about the pKd [2] of the same molecule?
A: Its pKd is 7.36.

Q: How did the pIC50 [1] turn out when CC(C)Cc1ccc(C(N)=O)cc1Nc1nc(-c2ccc3c(c2)ncn3C)cs1 [Example 2, 4-Isobutyl-3-[4-(1-methyl-1H-benzoimidazol-5-yl)-thiazol-2-ylamino]-benzamide•TFA] was run?
A: Its pIC50 is roughly 5.52.

Q: And the pKd [2]?
A: The pKd was 6.16.

Q: What about the pKd [3] of the same molecule?
A: The pKd was 5.22.

Q: What does the source list for CC(C)Oc1ccc(C(N)=O)cc1Nc1nc(-c2ccc3c(cnn3C)c2)cs1 [Example 14, 4-Isopropoxy-3-[4-(1-methyl-1H-indazol-5-yl)-thiazol-2-ylamino]-benzamide•TFA]?
A: pIC50 [1]: 6.46; pKd [2]: 7.17; pKd [3]: 6.17

Q: How did the pIC50 [1] turn out when CC(C)Oc1ccc(S(N)(=O)=O)cc1Nc1nc(-c2ccc3c(c2)nc(CN(C)CCN(C)C)n3C)cs1 [Example 32, 3-((4-(2-(((2-(Dimethylamino)ethyl)(methyl)amino)methyl)-1-methyl-1H-benzo[d]imidazol-5-yl)thiazol-2-yl)amino)-4-isopropoxybenzenesulfonamide•TFA] was run?
A: The pIC50 was 6.70.

Q: And the pKd [2]?
A: The pKd was 7.28.

Q: What does the source list for CC(C)Oc1ccc(S(N)(=O)=O)cc1Nc1nc(-c2ccc3[nH]cnc3c2)cs1 [Example 21, 3-[4-(1H-Benzoimidazol-5-yl)-thiazol-2-ylamino]-4-isopropoxy-benzenesulfonamide•TFA]?
A: pIC50 [1]: 6.49; pKd [2]: 7.04; pKd [3]: 5.85

Q: Which results are given for CC(C)Oc1ccc(S(N)(=O)=O)cc1Nc1nc(-c2ccc3c(c2)nc(CN2CCN(C)CC2)n3C)cs1 [Example 30]?
A: pIC50 [1]: 7.09; pKd [2]: 7.06

Q: CC(C)Oc1ccc(S(N)(=O)=O)cc1Nc1nc(-c2ccc3c(c2)nc(CO)n3C)cs1 [Example 29] was tested. Which pIC50 [1] did it give?
A: Its pIC50 is 6.82.

Q: And the pKd [2]?
A: Its pKd is 7.00.

Q: What about the pKd [3] of the same molecule?
A: Its pKd is 6.18.

Q: Which results are given for Cc1nc2cc(-c3csc(Nc4cc(S(N)(=O)=O)ccc4OC(C)C)n3)ccc2n1C [Example 23, 3-[4-(1,2-Dimethyl-1H-benzoimidazol-5-yl)-thiazol-2-ylamino]-4-isopropoxy-benzenesulfonamide•TFA]?
A: pIC50 [1]: 6.74; pKd [2]: 6.44; pKd [3]: 5.96

Q: Which results are given for CC(C)Oc1ccc(S(N)(=O)=O)cc1Nc1nc(-c2ccc3[nH]c(=O)[nH]c3c2)cs1 [Example 33]?
A: pIC50 [1]: 6.77; pKd [2]: 7.09

Q: How did the pIC50 [1] turn out when CC(C)Oc1ccc(S(N)(=O)=O)cc1Nc1nc(-c2ccc3c(c2)nc(CN(C)C)n3C)cs1 [Example 31, 3-((4-(2-((Dimethylamino)methyl)-1-methyl-1H-benzo[d]imidazol-5-yl)thiazol-2-yl)amino)-4-isopropoxybenzenesulfonamide•TFA] was run?
A: Its pIC50 is 7.14.

Q: What about the pKd [2] of the same molecule?
A: The pKd was 7.28.

Q: How did the pIC50 [1] turn out when Cc1nc2ccc(-c3csc(Nc4cc(S(N)(=O)=O)ccc4OC(C)C)n3)cc2n1C [Example 22, 3-[4-(2,3-Dimethyl-3H-benzoimidazol-5-yl)-thiazol-2-ylamino]-4-isopropoxy-benzenesulfonamide•TFA] was run?
A: The pIC50 was 6.62.

Q: And the pKd [2]?
A: The pKd was 6.77.

Q: What about the pKd [3] of the same molecule?
A: The pKd was 6.32.

Q: With CC(C)Oc1ccc(S(N)(=O)=O)cc1Nc1nc(-c2ccc3c(c2)ncn3C)cs1 [Example 9, 4-Isopropoxy-3-[4-(1-methyl-1H-benzoimidazol-5-yl)-thiazol-2-ylamino]-benzenesulfonamide•HCl] as the molecule, how does the pIC50 [1] read?
A: The pIC50 was 6.82.

Q: And the pKd [2]?
A: The pKd was 6.59.

Q: What about the pKd [3] of the same molecule?
A: Its pKd is 5.70.

Q: With CCCn1cnc2ccc(-c3csc(Nc4cc(S(N)(=O)=O)ccc4OC(C)C)n3)cc21 [Example 19, 4-Isopropoxy-3-[4-(3-propyl-3H-benzoimidazol-5-yl)-thiazol-2-ylamino]-benzenesulfonamide•TFA] as the molecule, how does the pIC50 [1] read?
A: The pIC50 was 6.34.

Q: And the pKd [2]?
A: Its pKd is 6.77.

Q: And the pKd [3]?
A: Its pKd is 6.08.

Q: Cn1ncc2cc(-c3csc(Nc4cc(C(N)=O)ccc4OC(F)(F)F)n3)ccc21 [Example 16, 3-[4-(1-Methyl-1H-indazol-5-yl)-thiazol-2-ylamino]-4-trifluoromethoxy-benzamide•TFA] was tested. Which pIC50 [1] did it give?
A: Its pIC50 is roughly 5.70.

Q: And the pKd [2]?
A: The pKd was 6.57.

Q: And the pKd [3]?
A: Its pKd is 5.17.

Q: CCCn1cnc2cc(-c3csc(Nc4cc(S(N)(=O)=O)ccc4OC(C)C)n3)ccc21 [Example 26] was tested. Which pIC50 [1] did it give?
A: The pIC50 was 6.33.

Q: What about the pKd [2] of the same molecule?
A: The pKd was 6.68.

Q: And the pKd [3]?
A: Its pKd is 6.00.

Q: Which results are given for CC(C)Oc1ccc(S(N)(=O)=O)cc1Nc1nc(-c2ccc3sccc3c2)cs1 [Example 20, 3-(4-Benzo[b]thiophen-5-yl-thiazol-2-ylamino)-4-isopropoxy-benzenesulfonamide•TFA]?
A: pIC50 [1]: 5.44; pKd [2]: 6.35; pKd [3]: 5.92

Q: CCn1c(C)nc2cc(-c3csc(Nc4cc(S(N)(=O)=O)ccc4OC(C)C)n3)ccc21 [Example 17, 3-[4-(1-Ethyl-2-methyl-1H-benzoimidazol-5-yl)-thiazol-2-ylamino]-4-isopropoxy-benzenesulfonamide•HCl] was tested. Which pIC50 [1] did it give?
A: Its pIC50 is 6.52.

Q: What about the pKd [2] of the same molecule?
A: Its pKd is 6.67.

Q: And the pKd [3]?
A: The pKd was 6.07.

Q: With COc1ccc(C(N)=O)cc1Nc1nc(-c2ccc3c(c2)ncn3C)cs1 [Example 10, 4-Methoxy-3-[4-(1-methyl-1H-benzoimidazol-5-yl)-thiazol-2-ylamino]-benzamide] as the molecule, how does the pIC50 [1] read?
A: Its pIC50 is 6.07.

Q: What about the pKd [2] of the same molecule?
A: The pKd was 6.49.

Q: What about the pKd [3] of the same molecule?
A: The pKd was 6.00.
